In brackets after ≈: the same amount, converted by molar mass.
Key:
T. b. brucei = assay: Acute T. b. brucei efficacy in mice; type: in vivo, Trypanosoma brucei brucei; settings: 3 mg/kg bid po for 4 days
Method: (citrate, fumarate and phosphate) (Figure 9). These alternative salt forms of compound 2 were prepared and formulated in the best vehicle determined by injection site tolerability analysis (0.3M sodium acetate buffer, Kolliphor EL, N-methyl pyrrolidone, 2-pyrrolidone, and 11% water suitable for injection). Rat IM pharmacokinetics was then carried out with each salt to determine the salt form to use for efficacy. None of these salt forms offered any improvement in rat IM pharmacokinetic profile over the free base in the tolerated vehicle (Figure S7).
3. In vivo efficacy studies
The T. congolense (IL3000) and T. vivax (ILRAD V34) cell lines7, 8, both originating from Kenya, were used in the following in vivo mouse studies. For studies in cattle, either Trypanosoma congolense (savannah) KONT 2/133, 224) or T. vivax STIB 719 was used.
3.1 Mouse efficacy studies for T. brucei brucei.
Mouse efficacy studies for T. brucei brucei were carried out as previously detailed.9 3.2 NMRI mouse efficacy studies for T. congolense and T. vivax.
Mouse models of infections were carried out using standardized protocols. Briefly, 1 mL samples of cryopreserved T. congolense, or T. vivax-infected blood harvested directly from an infected mouse, were diluted with Hanks Balanced Salt Solution plus 20 mM glucose (HBSS+G) to 5 x 10^4 trypomastigotes/mL (5 x 105 for T. vivax). […]

[1] = Solubility of compound 1 in PBS pH 7.4 (filtration, UHPLC); type: physicochemical; settings: phosphate buffered saline; aqueous; PBS pH 7.4, 24 h mixing, UHPLC (method used for compound 1)
Method: software. All experiments were conducted with technical duplicates and at least three biological […]
1.4 Cytotoxicity assays – Rat skeletal myoblasts (L6)
The cytotoxicity of test compounds was evaluated using a rat skeletal myoblast (L6) cell line, as previously described3, but with minor modifications. Cells were grown in RPMI media supplemented with 10% (v/v) fetal calf serum. L6 cells at a seeding density of 2 x 10^4 cells/mL were incubated in microtiter plates overnight at 37 °C and 5 % CO2 until adherent. The following day, test compounds were added to the plates (3-fold serial dilutions), prior to incubation for 69 h. […] The plates were read using a SpectraMax (Gemini XS) fluorescence reader at an excitation wavelength of 536 nm and an emission wavelength of 588 nm. EC50 values were determined using SOFTmax Pro 5.2 analysis software. […]
The aqueous solubility of test compounds was measured using laser nephelometry. […] Triplicate aliquots were transferred to a flat-bottomed polystyrene plate which was immediately read on a NEPHELOstar nephelometer (BMG Lab Technologies). […]
Solubility of compound 1 was measured by a different method. […]
solution was then mixed for 24 h (rotary mixing, 900 rpm, 25°C) excluding light. […] The resulting filtrate was analysed for dissolved compound 1 using a truncated UHPLC methodology. […]

CC(C)CS(=O)(=O)N[C@H]1CC[C@H](Nc2nc(N)c(C(=O)c3c(F)cccc3F)s2)CC1 [Compound 1, N-((trans)-4-((4-Amino-5-(2,6-difluorobenzoyl)thiazol-2-yl)amino)cyclohexyl)-2-methylpropane-1-sulfonamide]
Acute T. b. brucei efficacy in mice (T. b. brucei): Cures 3 mg/kg bid po for 4 days | solubility at 24 h [1]: 105 µM (≈ 49.6 µg/mL)
